Reference: US7645752B2, “Sulfonyl substituted 1H-indoles as ligands for the 5-hydroxytryptamine receptors” (Wyeth LLC, priority 2006, dated 2010)
Structures can show the parent of a compound that is named as a salt.

SMILES	melting point
NCCc1cccc2[nH]cc(S(=O)(=O)c3cccc(F)c3)c12 (as salt: hydrochloride) [Example 85, {2-[3-(3-fluorophenylsulfonyl)-1H-indol-4-yl]ethyl}amine]	122 to 125 °C
O=S(=O)(c1ccccc1)c1c[nH]c2cccc(CCNCc3ccccc3)c12 (as salt: hydrochloride) [Example 47, N-benzyl-N-{2-[3-(phenylsulfonyl)-1H-indol-4-yl]ethyl}amine]	172 °C
CCN(CC)CCc1ccc2[nH]cc(S(=O)(=O)c3ccccc3)c2c1 (as salt: hydrochloride) [Example 8, N,N-diethyl-N-{2-[3-(phenylsulfonyl)-1H-indol-5-yl]ethyl}amine]	193 to 195 °C
NCCc1ccc2c(S(=O)(=O)c3ccccc3)c[nH]c2c1 (as salt: hydrochloride) [Example 109, {2-[3-(phenylsulfonyl)-1H-indol-6-yl]ethyl}amine]	178 °C
CCN(CC)CCc1cccc2[nH]cc(S(=O)(=O)c3ccccc3)c12 (as salt: hydrochloride) [Example 42, N,N-diethyl-N-{2-[3-(phenylsulfonyl)-1H-indol-4-yl]ethyl}amine]	77 to 83 °C
CCCNCCc1ccc2[nH]cc(S(=O)(=O)c3ccccc3)c2c1 (as salt: hydrochloride) [Example 2, N-{2-[3-(phenylsulfonyl)-1H-indol-5-yl]ethyl}-N-propylamine]	189 to 192 °C
CCNCCc1cccc2[nH]cc(S(=O)(=O)c3ccccc3)c12 (as salt: hydrochloride) [Example 33, N-ethyl-N-{2-[3-(phenylsulfonyl)-1H-indol-4-yl]ethyl}amine]	225 to 228 °C
CNCCc1cccc2[nH]cc(S(=O)(=O)c3ccccc3)c12 (as salt: hydrochloride) [Example 32, N-methyl-N-{2-[3-(phenylsulfonyl)-1H-indol-4-yl]ethyl}amine]	168 to 170 °C
O=S(=O)(c1ccccc1)c1c[nH]c2ccc(CCN3CCNCC3)cc12 (as salt: hydrochloride) [Example 13, 3-(phenylsulfonyl)-5-(2-piperazin-1-ylethyl)-1H-indole]	220 °C
O=S(=O)(c1ccccc1)c1c[nH]c2cccc(CCN3CCOCC3)c12 (as salt: hydrochloride) [Example 45, 4-(2-morpholin-4-ylethyl)-3-(phenylsulfonyl)-1H-indole]	164 to 165 °C
O=S(=O)(c1ccccc1)c1c[nH]c2cccc(CCNCC3CCCO3)c12 (centres unmarked) (as salt: hydrochloride) [Example 51, N-{2-[3-(phenylsulfonyl)-1H-indol-4-yl]ethyl}-N-((tetrahydrofur-2-yl)methyl)amine]	110 to 115 °C
CCN(C)CCc1ccc2[nH]cc(S(=O)(=O)c3ccccc3)c2c1 (as salt: hydrochloride) [Example 7, N-ethyl-N-methyl-N-{2-[3-(phenylsulfonyl)-1H-indol-5-yl]ethyl}amine]	203 °C
O=S(=O)(c1ccccc1)c1c[nH]c2ccc(CCN3CCCC3)cc12 (as salt: hydrochloride) [Example 9, 3-(phenylsulfonyl)-5-(2-pyrrolidin-1-ylethyl)-1H-indole]	230 to 232 °C
CC(C)NCCc1cccc2[nH]cc(S(=O)(=O)c3ccccc3)c12 (as salt: hydrochloride) [Example 35, N-{2-[3-(phenylsulfonyl)-1H-indol-4-yl]ethyl}propan-2-amine]	185 to 187 °C
CNCCc1cccc2c(S(=O)(=O)c3ccccc3)c[nH]c12 (as salt: hydrochloride) [Example 19, N-methyl-N-{2-[3-(phenylsulfonyl)-1H-indol-7-yl]ethyl}amine]	187 to 188 °C
O=S(=O)(c1ccccc1)c1c[nH]c2c(CCN3CCCC3)cccc12 (as salt: hydrochloride) [Example 26, 3-(phenylsulfonyl)-7-(2-pyrrolidin-1-ylethyl)-1H-indole]	250 to 252 °C (dec.)
CCCNCCc1cccc2c(S(=O)(=O)c3ccccc3)c[nH]c12 (as salt: hydrochloride) [Example 20, N-{2-[3-(phenylsulfonyl)-1H-indol-7-yl]ethyl}-N-propylamine]	260 to 262 °C
O=S(=O)(c1ccccc1)c1c[nH]c2c(CCNC3CCCC3)cccc12 (as salt: hydrochloride) [Example 23, N-{2-[3-(phenylsulfonyl)-1H-indol-7-yl]ethyl}cyclopentanamine]	255 to 256 °C (dec.)
CCCNCCc1cccc2[nH]cc(S(=O)(=O)c3ccccc3)c12 (as salt: hydrochloride) [Example 34, N-{2-[3-(phenylsulfonyl)-1H-indol-4-yl]ethyl}-N-propylamine]	217 °C
CN(CCc1cccc2[nH]cc(S(=O)(=O)c3ccccc3)c12)C1CCCCC1 (as salt: hydrochloride) [Example 41, N-cyclohexyl-N-methyl-N-{2-[3-(phenylsulfonyl)-1H-indol-4-yl]ethyl}amine]	132 to 140 °C
O=S(=O)(c1ccccc1)c1c[nH]c2c(CCNC3CC3)cccc12 (as salt: hydrochloride) [Example 22, N-{2-[3-(phenylsulfonyl)-1H-indol-7-yl]ethyl}cyclopropanamine]	213 to 216 °C (dec.)
O=S(=O)(c1ccccc1)c1c[nH]c2ccc(CCN3CCOCC3)cc12 (as salt: hydrochloride) [Example 11, 5-(2-morpholin-4-ylethyl)-3-(phenylsulfonyl)-1H-indole]	250 to 255 °C
NCCc1ccc2[nH]cc(S(=O)(=O)c3ccccc3)c2c1 (as salt: hydrochloride) [Example 12, {2-[3-(phenylsulfonyl)-1H-indol-5-yl]ethyl}amine]	200 °C
O=S(=O)(c1ccccc1)c1c[nH]c2c(CCN3CCCCC3)cccc12 (as salt: hydrochloride) [Example 27, 3-(phenylsulfonyl)-7-(2-piperidin-1-ylethyl)-1H-indole]	231 to 233 °C
O=S(=O)(c1ccccc1)c1c[nH]c2cccc(CCN3CCCCC3)c12 (as salt: hydrochloride) [Example 44, 3-(phenylsulfonyl)-4-(2-piperidin-1-ylethyl)-1H-indole]	200 to 205 °C
O=S(=O)(c1ccccc1)c1c[nH]c2cccc(CCNC3CCC3)c12 (as salt: hydrochloride) [Example 37, N-{2-[3-(phenylsulfonyl)-1H-indol-4-yl]ethyl}cyclobutanamine]	95 to 103 °C
CC(C)(C)CNCCc1cccc2[nH]cc(S(=O)(=O)c3ccccc3)c12 (as salt: hydrochloride) [Example 49, N-(2,2-dimethylpropyl)-N-{2-[3-(phenylsulfonyl)-1H-indol-4-yl]ethyl}amine]	135 °C
CCN(CC)CCc1cccc2c(S(=O)(=O)c3ccccc3)c[nH]c12 (as salt: hydrochloride) [Example 25, N,N-diethyl-N-{2-[3-(phenylsulfonyl)-1H-indol-7-yl]ethyl}amine]	165 to 166 °C (dec.)
O=S(=O)(c1ccccc1)c1c[nH]c2ccc(CCNC3CCCC3)cc12 (as salt: hydrochloride) [Example 5, N-{2-[3-(phenylsulfonyl)-1H-indol-5-yl]ethyl}cyclopentanamine]	252 °C
